Measurements as given in ChEMBL document CHEMBL5338706, “Discovery of a potent and selective proteolysis targeting chimera (PROTAC) degrader of NSD3 histone methyltransferase” (Eur J Med Chem, 2022).
Calls of active or inactive are those of the source. The calls are words filed in the database; no cut-off is given here.

Legend:
NCI-H520 [1] = test: Induction of apoptosis in human NCI-H520 cells assessed as decrease in Bcl-XL protein expression at […] by measuring fold change by Western blot analysis relative to control; format: functional; conditions: dose 7.5 µM
NCI-H1703 [2] = test: Induction of apoptosis in human NCI-H1703 cells assessed as early apoptotic cells at 5 uM measured after 72 hrs by PI/Annexin-V staining based flow cytometry analysis (reference value: 1.47% ); format: functional
NCI-H1703 [3] = test: Induction of cell cycle arrest in human NCI-H1703 cells assessed as increase accumulation of cells at G2/M phase at […] incubated for 48 hrs by propidium iodide staining based analysis; format: functional; conditions: dose 7.5 µM
NCI-H520 [4] = test: Induction of apoptosis in human NCI-H520 cells assessed as decrease in NSD3 protein expression at 5 uM by measuring fold change by Western blot analysis relative to control; format: functional
NCI-H1703 [5] = test: Induction of apoptosis in human NCI-H1703 cells assessed as necrotic cells at 3 uM measured after 72 hrs by PI/Annexin-V staining based flow cytometry analysis (reference value: 2.80% ); format: functional
NCI-H1703 [6] = test: Induction of apoptosis in human NCI-H1703 cells assessed as decrease in MCL-1 protein expression at 5 to 10 uM by Western blot analysis; format: functional, cell-based; conditions: dose 5-10 µM
NCI-H1703 [7] = test: Induction of apoptosis in human NCI-H1703 cells assessed as viable cells at 3 uM measured after 72 hrs by PI/Annexin-V staining based flow cytometry analysis (reference value: 92.7% ); format: functional; conditions: read-out: Activity
NCI-H1703 [8] = test: Induction of apoptosis in human NCI-H1703 cells assessed as viable cells at 5 uM measured after 72 hrs by PI/Annexin-V staining based flow cytometry analysis (reference value: 92.7% ); format: functional; conditions: read-out: Activity
NCI-H1703 [9] = test: Downregulation of CyclinD1 level in human NCI-H1703 cells at 3 to […] by Western blot analysis; format: functional, cell-based; conditions: dose 3-7.5 µM
[10] = Downregulation of CDC25A level in human NCI-H520 cells at 3 uM by measuring fold change by Western blot analysis relative to control; format: functional
[11] = Downregulation of NSD3 level in human NCI-H1703 cells at […] by measuring fold change by Western blot analysis relative to control; format: functional; conditions: dose 7.5 µM
NCI-H1703 [12] = test: Downregulation of IGFBP3 in human NCI-H1703 cells at […] measured after 72 hrs by RNA sequencing assay; format: functional, cell-based; conditions: dose 7.5 µM
NCI-H520 [13] = test: Induction of apoptosis in human NCI-H520 cells assessed as decrease in MCL-1 protein expression at 5 uM by measuring fold change by Western blot analysis relative to control; format: functional
[14] = Downregulation of CDC25A level in human NCI-H520 cells at […] by measuring fold change by Western blot analysis relative to control; format: functional; conditions: dose 7.5 µM
A549 = test: Antiproliferative activity against human A549 cells incubated for 3 days by CCK-8 method; format: functional, cell-based; conditions: A549, 72 h
[15] = Downregulation of Cyclin D1 level in human NCI-H1703 cells at 5 uM by measuring fold change by Western blot analysis relative to control; format: functional
NCI-H1703 [16] = test: Induction of apoptosis in human NCI-H1703 cells assessed as necrotic cells at 10 uM measured after 72 hrs by PI/Annexin-V staining based flow cytometry analysis (reference value: 2.80% ); format: functional
NCI-H1703 [17] = test: Induction of apoptosis in human NCI-H1703 cells assessed as decrease in Bcl-XL protein expression at 5 to 10 uM by Western blot analysis; format: functional, cell-based; conditions: dose 5-10 µM
NCI-H1703 [18] = test: Induction of apoptosis in human NCI-H1703 cells assessed as late apoptotic cells at 3 uM measured after 72 hrs by PI/Annexin-V staining based flow cytometry analysis (reference value: 3.00% ); format: functional
NCI-H520 [19] = test: Downregulation of CDC25A level in human NCI-H520 cells at 3 to […] by Western blot analysis; format: functional, cell-based; conditions: dose 3-7.5 µM
NCI-H1703 [20] = test: Induction of apoptosis in human NCI-H1703 cells assessed as decrease in Bcl-XL protein expression at 5 uM by measuring fold change by Western blot analysis relative to control; format: functional

With `Cc1cc(CNCCCCCCCCCCC(=O)N[C@H](C(=O)N2C[C@H](O)C[C@H]2C(=O)N[C@@H](C)c2ccc(-c3scnc3C)cc2)C(C)(C)C)cc(C)c1-c1ncn(C)c1-c1ccnc2cc(F)ccc12` the “fold change (FC)” value (NCI-H520 [1]) was 0.8, the Activity (NCI-H1703 [2]) was 7.5% and the Activity (NCI-H1703 [3]) was “Active”. The “fold change (FC)” value (NCI-H520 [4]) was 0.83, the Activity (NCI-H1703 [5]) was 1.34% and the Activity (NCI-H1703 [6]) was “Active”. For the same compound, the viability at 3 µM (NCI-H1703 [7]) was 94.2%, the viability at 5 µM (NCI-H1703 [8]) was 81.2% and the Activity (NCI-H1703 [9]) was “Active”. For the same compound, the “fold change (FC)” value [10] was 0.9, the “fold change (FC)” value [11] was 0.66 and the Activity (NCI-H1703 [12]) was “Active”. The “fold change (FC)” value (NCI-H520 [13]) was 0.86, the “fold change (FC)” value [14] was 0.6 and the IC50 (A549) was 5.49 µM. For the same compound, the “fold change (FC)” value [15] was 0.69, the Activity (NCI-H1703 [16]) was 16.6% and the Activity (NCI-H1703 [17]) was “Active”. The Activity (NCI-H1703 [18]) was 3%, the Activity (NCI-H520 [19]) was “Active” and the “fold change (FC)” value (NCI-H1703 [20]) was 1.1.
